Assay [1] has as its system Harlan Sprague Dawley rats. Kind of assay: gastric emptying rate in conscious rats (3H-glucose gavage). The class given is in vivo, rat. The note with it: subcutaneous. As to the method: Male Harlan Sprague Dawley® rats, 237-317 g, were housed with a 12:12 hour light:dark cycle. The experiment was carried out during the light cycle. At time=0 min, test peptide (amylin or AFP-6) at 6.3, 20, 63, 200, 632, and 1122 μg/kg or vehicle was injected (subcutaneous) into conscious rats (n=6/group). At t=5 min, a solution of 1 mL sterile water containing 5 μCi D-[3-^3H] glucose was gavaged by oropharyngeal tube to conscious rats. Blood samples were collected 30 min after gavage and assayed for counts per minute (CPM) in plasma. 20% benzocaine liquid topical anesthetic was used to eliminate pain during sampling. (Gedulin et al. (1995) Gastroenterology 108:A604). The appearance of counts in plasma is a reflection of the rate of gastric emptying. Significance of difference (p<0.05) was determined by ANOVA.

Assay [2] in a line: plasma ionized calcium in rats. The note with it: subcutaneous, samples of Example 4. Type of assay: in vivo, rat. As to the method:
Using the samples obtained from Example 4, ionized calcium was measured in plasma samples obtained from gastric emptying experiments described above, using an ion selective electrode, Ciba/Corning 634 Ca/pH analyzer (Ciba/Corning, Inc., Medfield, Mass.).

In assay [3] the test system is adrenomedullin receptor. The note with it: bovine studies; cited from earlier work.
Assay [4] has as its target adrenomedullin receptor (Homo sapiens, UniProt O60895+Q16602). Briefly: cAMP production in HUVECs (AlphaScreen). Type of assay: cell-based. On the set-up: tested for bioactivity in HUVECs that contain the adrenomedullin receptor; endogenous in cells; host or cells: HUVEC. For orientation: cAMP levels reflect the balance of adenylyl cyclase and phosphodiesterase activity.

Assay [5] addresses T1, amylin receptors (Rattus norvegicus, UniProt P32214).
T1 construct: This basal forebrain tissue, containing the nucleus accumbens and surrounding regions, was weighed and homogenized; from tissue; host or cells: rat basal forebrain (nucleus accumbens) membranes, male Sprague-Dawley rats
T1 sequence (P32214 25-516): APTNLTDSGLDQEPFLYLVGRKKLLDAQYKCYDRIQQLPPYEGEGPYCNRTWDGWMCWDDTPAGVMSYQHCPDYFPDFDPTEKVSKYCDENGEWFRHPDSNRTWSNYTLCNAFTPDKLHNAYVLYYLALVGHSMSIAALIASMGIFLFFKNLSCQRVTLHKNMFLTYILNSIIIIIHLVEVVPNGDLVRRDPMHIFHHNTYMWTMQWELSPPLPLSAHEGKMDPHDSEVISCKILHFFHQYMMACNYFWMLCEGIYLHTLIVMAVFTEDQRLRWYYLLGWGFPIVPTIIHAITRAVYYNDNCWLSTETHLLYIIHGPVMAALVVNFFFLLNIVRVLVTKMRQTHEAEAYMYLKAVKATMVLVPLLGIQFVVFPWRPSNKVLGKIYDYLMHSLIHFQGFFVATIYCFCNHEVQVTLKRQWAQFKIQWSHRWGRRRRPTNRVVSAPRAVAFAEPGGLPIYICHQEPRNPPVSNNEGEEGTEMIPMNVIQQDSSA
Briefly: amylin radioligand binding assay (125I-rat amylin, nucleus accumbens membranes). The note with it: FIG. 10. A digest of the protocol: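 Membranes from male Sprague-Dawley rat brain region rostral to hypothalamus, washed and resuspended in 20 mM HEPES with 0.2 mM PMSF. Incubation 60 min at 2 C, then filtration with cold PBS washes.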

Assay [6] concerns NIH/Swiss mice. Kind of assay: acute food intake assay in overnight-fasted mice, IP injection. The class given is in vivo, mouse. A digest of the protocol: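 Overnight-fasted lean group-housed NIH/Swiss mice given IP doses 0.3–300 nmol/kg (n=12/group) at t=0, with food given immediately.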
Assay [7] deals with T2, calcitonin receptor (Homo sapiens, UniProt P30988).
T2 sequence (P30988 25-474): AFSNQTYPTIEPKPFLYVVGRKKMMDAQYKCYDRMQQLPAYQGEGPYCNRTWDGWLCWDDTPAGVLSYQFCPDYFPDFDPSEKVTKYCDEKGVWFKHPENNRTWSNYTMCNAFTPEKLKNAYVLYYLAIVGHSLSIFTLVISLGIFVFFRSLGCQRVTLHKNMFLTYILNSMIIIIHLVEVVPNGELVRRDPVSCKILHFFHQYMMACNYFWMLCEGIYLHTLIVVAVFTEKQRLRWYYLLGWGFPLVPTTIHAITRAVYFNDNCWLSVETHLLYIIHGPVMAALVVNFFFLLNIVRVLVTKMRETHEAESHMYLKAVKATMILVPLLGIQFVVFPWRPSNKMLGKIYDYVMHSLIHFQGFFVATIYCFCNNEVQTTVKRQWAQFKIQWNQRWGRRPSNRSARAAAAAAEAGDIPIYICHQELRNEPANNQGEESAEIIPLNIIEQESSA
Briefly: cAMP production in T47D cells (AlphaScreen).
Description: Data from three exemplary independent alpha screen assays are summarized with EC50 values calculated in PRISM.

In assay [8] the test system is calcitonin receptor. Briefly: cAMP production in CHO cells (AlphaScreen). The note with it: for pEC50: CHO, 30,000 cells/well. Type of assay: cell-based.

SMILES strings stand for the structures. pEC50: −log10 of the molar value. Like-named read-outs stand apart in the source and are kept apart here.

Sequence of adrenomedullin receptor (Homo sapiens, UniProt O60895+Q16602) (Q16602 23-461): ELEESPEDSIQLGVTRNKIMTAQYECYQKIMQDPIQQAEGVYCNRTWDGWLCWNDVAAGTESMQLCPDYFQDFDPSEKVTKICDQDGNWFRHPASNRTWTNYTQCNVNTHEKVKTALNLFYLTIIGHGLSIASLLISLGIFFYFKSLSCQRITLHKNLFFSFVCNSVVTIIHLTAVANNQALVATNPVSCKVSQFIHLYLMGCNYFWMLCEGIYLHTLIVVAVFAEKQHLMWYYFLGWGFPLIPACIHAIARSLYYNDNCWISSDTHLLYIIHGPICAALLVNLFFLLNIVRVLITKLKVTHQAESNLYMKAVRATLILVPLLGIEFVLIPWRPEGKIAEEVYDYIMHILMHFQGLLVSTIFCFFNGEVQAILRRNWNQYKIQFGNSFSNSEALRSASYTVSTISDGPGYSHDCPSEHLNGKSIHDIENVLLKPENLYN
Sequence of adrenomedullin receptor (Homo sapiens, UniProt O60895+Q16602) (O60895 43-175): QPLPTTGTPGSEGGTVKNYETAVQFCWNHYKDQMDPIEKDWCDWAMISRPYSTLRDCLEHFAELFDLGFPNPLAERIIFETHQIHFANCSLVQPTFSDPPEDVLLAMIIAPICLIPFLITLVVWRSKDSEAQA

A word on the pEC50: it is the negative decadic logarithm of the EC50, by convention in mol/L. `CSCC[C@H](NC(=O)[C@H](CC(C)C)NC(=O)[C@H](CCC(N)=O)NC(=O)[C@H](Cc1c[nH]c2ccccc12)NC(=O)[C@H](CC(C)C)NC(=O)[C@H](CCCNC(=N)N)NC(=O)[C@H](Cc1c[nH]cn1)NC(=O)[C@H](CO)NC(=O)[C@H](CC(C)C)NC(=O)[C@H](CC(N)=O)NC(=O)[C@H](CCC(N)=O)NC(=O)[C@@H](NC(=O)[C@H](CCC(N)=O)NC(=O)[C@@H]1CSSC[C@H](NC(=O)CNC(=O)[C@@H](NC(=O)[C@H](CCCNC(=N)N)NC(=O)[C@H](CC(C)C)NC(=O)[C@H](CC(C)C)NC(=O)[C@H](CCC(N)=O)NC(=O)[C@H](C)NC(=O)[C@H](CCC(N)=O)NC(=O)[C@@H](N)[C@@H](C)O)C(C)C)C(=O)N[C@@H](C(C)C)C(=O)N[C@@H](CC(C)C)C(=O)NCC(=O)N[C@@H]([C@@H](C)O)C(=O)N1)C(C)C)C(=O)NCC(=O)N1CCC[C@H]1C(=O)N[C@@H](C)C(=O)NCC(=O)N[C@@H](CCCNC(=N)N)C(=O)N[C@@H](CCC(N)=O)C(=O)N[C@@H](CC(=O)O)C(=O)N[C@@H](CO)C(=O)N[C@@H](C)C(=O)N1CCC[C@H]1C(=O)N[C@H](C(=O)N[C@@H](CC(=O)O)C(=O)N1CCC[C@H]1C(=O)N[C@@H](CO)C(=O)N[C@@H](CO)C(=O)N1CCC[C@H]1C(=O)N[C@@H](Cc1c[nH]cn1)C(=O)N[C@@H](CO)C(=O)N[C@@H](Cc1ccc(O)cc1)C(N)=O)C(C)C` [SEQ ID NO: 1]: the “ED50, inhibition of gastric emptying” value in assay [1] was found to be 0.049 mg/kg. Besides, in assay [2], the “ED50, decrease of plasma ionized calcium” value is 0.025 mg/kg. The “binding at the adrenomedullin receptor” value in assay [3] is 1 to 5 nM. Further, the “increase of cAMP levels” value in assay [4] (HUVECs, 1 μM and 10 nM) is given as “active in increasing cAMP levels”. In addition, the “rank order of potency in HUVECs” value in assay [4] (cAMP, FIG. 9) was “adrenomedullin >AFP-6>>CGRP alpha”. Further, the “rank order of potency, displacement of bound amylin” value in assay [5] was “amylin >CGRP>AFP-6 >>adrenomedullin>calcitonin”. The “inhibition of food intake” value in assay [6] (1 mg/kg IP, mice) is 91%. Also, in assay [6] (60 min time point, 0.3-300 nmol/kg IP, non-linear regression), the “ED50, short-term food intake” value came out at 19 nmol/kg. Also, the “FI 30 min ED50” value in assay [6] (food intake, 30 min) lay in the range of 9 to 14 nmol/kg. In assay [6] (food intake, 60 min), the “FI 60 min ED50” value was in the range of 14 to 19 nmol/kg. Moreover, in assay [7], the “rank order of potency, T47D cells” value is “calcitonin>amylin >AFP-6=hCGRP alpha>adrenomedullin”. The pEC50 in assay [8] (average of three experiments, read-out: Average EC50) was 8.02; in assay [8] (read-out: Experiment 1 EC50) it was 7.95; in assay [8] (read-out: Experiment 2 EC50), 7.97; in assay [8] (read-out: Experiment 3 EC50), 8.15. In assay [8] (cAMP, FIG. 9), the “rank order of potency in CHO cells” value is “AFP-6>adrenomedullin=CGRP alpha”. Also, in assay [8] (cAMP, panel of related peptides), the “rank order of potency, CHO cell experiments” value was “calcitonin >AFP-6>amylin >hCGRP alpha>adrenomedullin”.

The record behind these values is patent publication US7928060B2, “Amylin family polypeptide-6 (AFP-6) analogs and methods of making and using them” (Amylin Pharmaceuticals, Inc., priority 2004, dated 2011).
